The structures appear in SMILES notation.

The record followed here is the METLIN SMRT retention time set (Domingo-Almenara et al. 2019).

This data set is described as follows: gradient 5% acetonitrile 3 min, to 50% in 2 min, to 85% in 15 min, held 3 min, 100 µL/min. The note with it: column: Zorbax Extend-C18 2.1 x 50 mm; eluents: water / acetonitrile, 0.1% formic acid. The gist of the method:
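Retention times of pure standards were taken from adduct peaks that were selected by computer and manually inspected. Over 3 months, mixtures of ~100 molecules were run by HPLC–quadrupole time-of-flight mass spectrometry in positive and negative ionization mode. The Zorbax Extend-C18 column (2.1 × 50 mm, 1.8 μm) ran at 100 μL/min in water and acetonitrile, each containing 0.1% formic acid, with 40 μL dead volume and 900 μL dwell volume.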
Consider `CC(C)c1nc(-c2ccc(OC3CCN(S(=O)(=O)c4cn(C)cn4)C3)cc2)no1` (centres undefined), for which the RP-LC retention time turned out to be 853 s.

Molecule `O=C(C1CCCC1)N1CC(c2nc(-c3ccc(F)cc3)no2)C2(CCOCC2)C1` (centres undefined) gave an RP-LC retention time of 958 s.

The molecule `COc1ccc(NS(=O)(=O)c2cc3n(c2)CCCNC3=O)c(C)c1` gave an RP-LC retention time of 640 s.

With `CCCn1c(=O)sc2cc(S(=O)(=O)N3CCC(C(=O)Nc4ccc(C)cn4)CC3)ccc21`, the RP-LC retention time is 808 s.

Take `COc1ccc(N(C)c2nnc(-c3ccc(NC(=O)c4ccco4)cc3)s2)cc1`: the RP-LC retention time was found to be 712 s.

Turning to `CCn1cc(-c2ccc(OC)cc2)cc1C(=O)N(C)C`, the RP-LC retention time was 842 s.

Take `CCCN(CC1CCOC1)C(=O)Nc1ccccc1OC` (centres undefined): the RP-LC retention time is 821 s.

For `Cc1ccc(C)c(NC(=O)CN2C(=O)CCc3cc(S(=O)(=O)N4CCCCC4C)ccc32)c1` (centres undefined), the RP-LC retention time was 983 s.

Consider `COc1cc([C@@H]2c3cc4c(cc3[C@@H](O)[C@H]3COC(=O)[C@H]23)OCO4)cc(OC)c1O`, for which the RP-LC retention time came to 680 s.

For the molecule `CCN(CC)c1ccc(CN(C(=O)Cc2coc3ccc(C)cc23)C2CCS(=O)(=O)C2)cc1` (centres undefined), the RP-LC retention time is 706 s.

`CCc1nc2cc3c(cc2n1CC(=O)Nc1ccc(C)cc1)OCCO3` had an RP-LC retention time of 678 s.

In turn, `O=C(c1ccc(Cl)nc1)c1cccs1` displayed an RP-LC retention time of 897 s.

Regarding `O=C(Cn1ccc2ccccc21)NCCn1nc(-n2ccnc2)ccc1=O`, the RP-LC retention time was 546 s.

Regarding `COc1ccc(C2C(C(=O)NCCN(C)C)c3cc(OC)c(OC)cc3C(=O)N2C)cc1` (centres undefined), the RP-LC retention time worked out at 597 s.

Consider `O=C(NC1CCN(Cc2ccccc2)CC1)C1CCCN(c2nccnc2Oc2ccccc2)C1` (centres undefined), for which the RP-LC retention time came to 680 s.

As for `COc1ccc(Cl)cc1NC(=O)c1coc(NC(=O)C2CC2)n1`, the RP-LC retention time was found to be 770 s.

`CCOc1ccccc1-c1noc(CN2C(=O)COc3cc(C)ccc32)n1`: the RP-LC retention time was 1050 s.

`O=C(Nc1cnn(-c2ncc(N3CCCC3)cn2)c1)c1ccc(C(F)(F)F)cc1` showed an RP-LC retention time of 941 s.

`COc1ccc(-c2ccc(=O)n(CCNC(=O)NC3CCCCC3)n2)cc1`: the RP-LC retention time was 681 s.

The molecule `O=C(NCc1ccc(F)cc1)c1cccc(-c2ccc(N3CCCC3)nc2)c1` returned an RP-LC retention time of 680 s.

In turn, `COc1ccc(-c2nnc(-c3ccc(C)c(S(=O)(=O)N(C)CC(=O)O)c3)o2)cc1OC` came in with an RP-LC retention time of 748 s.

Consider `Cc1sc(-c2cc(C(F)(F)F)on2)cc1S(=O)(=O)N1CCN(c2cccc(Cl)c2)CC1`, for which the RP-LC retention time was 1440 s.

Take `COc1ccc(-c2nc3cnccn3c2Nc2ccccc2C)cc1OC`: the RP-LC retention time was 793 s.

Molecule `CN(Cc1ccccc1)Cc1nc(-c2ccc(N3CCSCC3)nc2)no1` had an RP-LC retention time of 837 s.

Consider `CCC(=O)N(C1CCOCC1)C1CCN(Cc2cc(F)c(F)c(F)c2)CC1`, for which the RP-LC retention time came to 625 s.

Molecule `COc1ccc(-c2c(C)noc2NC(C)=O)cc1S(=O)(=O)Nc1ccc(F)cc1C` yielded an RP-LC retention time of 770 s.

With `O=C(NCCc1ccccc1)N1CCc2nc(-c3ccccc3)ncc2C1`, the RP-LC retention time was determined as 860 s.

With `O=C(c1ccco1)N1CCN(C(=O)C2CCN(c3nc4ccccc4[nH]c3=O)CC2)CC1`, the RP-LC retention time was 631 s.

Take `COc1ccc(NC(=O)C2CCN(C(=O)C3Sc4ccccc4NC3=O)CC2)cc1` (centres undefined): the RP-LC retention time is 729 s.

In turn, `CCOc1ccc(S(=O)(=O)N2CCC(C(=O)NCCCOC)CC2)cc1C` had an RP-LC retention time of 789 s.

`O=C(c1cccnc1)N1CCN(c2ccccc2Cl)CC1` gave an RP-LC retention time of 826 s.

The molecule `CCc1ccccc1NC(=O)N(C)CCc1noc(COc2ccccc2)n1` yielded an RP-LC retention time of 962 s.

`Cc1cc(C(=O)NCCCN2CCN(c3cc(Cl)ccc3C)CC2)n(-c2ccccc2)n1`: the RP-LC retention time amounted to 726 s.

In turn, `C=CCn1c(C)c(CC(=O)NCCOC)c(=O)n2nc(-c3ccccc3)nc12` gave an RP-LC retention time of 673 s.

As to `COc1cc2c(cc1NC(=O)c1cccs1)n(C)c(=O)n2C`, the RP-LC retention time amounted to 717 s.

As to `CCCn1nnc(NCc2ccc(-c3ccc(C)c(Cl)c3)o2)n1`, the RP-LC retention time is 1130 s.

`O=C(NC1CCN(c2cc(-c3ccccc3)[nH]n2)C1)c1ccoc1` (centres undefined) gave an RP-LC retention time of 650 s.

Take `COc1cc2c(cc1OC)C(C(=O)NCc1ccccn1)C1c3ccccc3CCN1C2=O` (centres undefined): the RP-LC retention time was determined as 616 s.

As to `CCc1ccc(Nc2c(C(=O)N3CCCC(C)C3)cnc3nc(C)ccc23)cc1` (centres undefined), the RP-LC retention time stood at 702 s.

As for `Cc1ccc(CNC(=O)N(C)CC2CCOCC2)cc1`, the RP-LC retention time was found to be 713 s.

In turn, `O=C(c1cc2ccccc2[nH]1)N1CCN(c2ccc(=O)n(-c3cccc(Cl)c3)n2)CC1` displayed an RP-LC retention time of 926 s.

With `COc1ccccc1-c1nc(Cn2nnc(-c3nc(-c4ccccn4)no3)c2C)c(C)o1`, the RP-LC retention time was 827 s.

Consider `Cc1ccsc1C(=O)N1CCN(c2ccc(=O)n(-c3ccc(Cl)cc3)n2)CC1`, for which the RP-LC retention time came out at 878 s.

Consider `COc1ccc2cccc(NC(=O)c3ccco3)c2n1`, for which the RP-LC retention time was 1010 s.

As to `CCc1nc2cc(-c3noc(-c4cccnc4SC)n3)ccc2o1`, the RP-LC retention time is 1220 s.

In the case of `COC(=O)c1cc(OCC(=O)Nc2ccc(F)cc2)c2cc(OC)ccc2n1`, the RP-LC retention time amounted to 810 s.

For the molecule `CCOc1ccc(-c2nc(Cc3noc(-c4cccnc4)n3)c(C)o2)cc1`, the RP-LC retention time was found to be 967 s.

`Cc1ccc2c(c1)N(S(C)(=O)=O)CCC(C(=O)Nc1ccc(Br)cc1F)O2` (centres undefined) yielded an RP-LC retention time of 1030 s.

Molecule `CCN(C(=O)Cc1ccccc1)c1nc(-c2ccccc2)cs1` yielded an RP-LC retention time of 1270 s.

Turning to `CS(=O)(=O)N1CCCc2cc(C(=O)NCCCN3CCOCC3)ccc21`, the RP-LC retention time worked out at 585 s.

With `Cc1ccc(S(=O)(=O)Nc2ccncc2)c(C)c1N(C)S(=O)(=O)c1ccc(F)cc1`, the RP-LC retention time amounted to 625 s.

Consider `CC(C)NC(=O)N(CC(=O)N1CCc2sccc2C1COc1ccccc1)CC1CC1` (centres undefined), for which the RP-LC retention time turned out to be 943 s.

The molecule `COC1OC2COC(c3ccccc3)OC2C(=O)C1NC(=O)c1ccccc1` (centres undefined) registered an RP-LC retention time of 1050 s.

`CNCc1ccc(-c2ccccc2Cl)o1` came in with an RP-LC retention time of 642 s.

In turn, `O=C(CCn1c(N2CCCCC2)nc2ccsc2c1=O)N1CCN(c2ccccn2)CC1` gave an RP-LC retention time of 629 s.

In turn, `CCN1CCN(c2cc(C)c3cc(NC(=O)CSc4ccccc4)ccc3n2)CC1` showed an RP-LC retention time of 602 s.

`O=C(c1ccc2c(c1)OCO2)N1CCN(c2nc(CN3CCCCC3)cs2)CC1` registered an RP-LC retention time of 620 s.

In the case of `CCc1ccc(NC(=O)NC2CCN(c3ccc(F)c(C)c3)C2=O)cc1` (centres undefined), the RP-LC retention time is 905 s.

As to `CCOc1ccc2ncc(S(=O)(=O)c3ccc(Cl)cc3)c(N3CCN(CC)CC3)c2c1`, the RP-LC retention time was determined as 685 s.

For `Cc1noc([C@@H]2CN(Cc3ccc(OC(F)(F)F)cc3)C[C@H]2CO)n1`, the RP-LC retention time stood at 643 s.

As to `CCn1cc(-c2nc(C)c(C(=O)NCc3ccc(C)o3)s2)c2cccnc21`, the RP-LC retention time worked out at 912 s.

Consider `COCCNC(=O)c1nc(Nc2ccc(F)cc2)c2ccccc2n1`, for which the RP-LC retention time was determined as 681 s.

For the molecule `Cc1ccc(-c2nc(-c3ccc4c(c3)ncn4CCN3CCOCC3)no2)cc1F`, the RP-LC retention time is 689 s.

In turn, `COC(=O)C1=CN(CC(=O)N2CCN(c3ccc(F)cc3)CC2)S(=O)(=O)N=C1C` registered an RP-LC retention time of 878 s.

In turn, `Cc1ccc2c(C(=O)NCc3cc(F)cc(F)c3)cc(NC(=O)C(C)C)cc2n1` displayed an RP-LC retention time of 666 s.

For the molecule `Cc1cccc(OCc2nc(-c3cccc(-c4ccn[nH]4)c3)no2)c1`, the RP-LC retention time turned out to be 999 s.

Turning to `COc1ccc(C(=O)N2CCC3(CC2)NC(=O)c2ccc(F)cc2N3C)cc1OC`, the RP-LC retention time was 698 s.

For the molecule `O=C(NCCn1c(=O)n(Cc2ccccc2)c2cccnc21)c1nccc2ccccc12`, the RP-LC retention time is 836 s.

Molecule `COCCCNC(=O)C1CCCN(c2ccc(=O)n(-c3ccc(OC)cc3)n2)C1` (centres undefined) registered an RP-LC retention time of 658 s.

In the case of `COc1cc(OC)cc(-c2noc(-c3nn(-c4ccc(Cl)cc4)ccc3=O)n2)c1`, the RP-LC retention time was found to be 973 s.

As to `Cn1c(=O)c2c(nc(Oc3ccccc3)n2C)n(C)c1=O`, the RP-LC retention time is 807 s.

`Cc1cc(C)c2c(N3CCCC3)nc(C(=O)Nc3ccc(N4CCOCC4)cc3)nc2n1` yielded an RP-LC retention time of 612 s.

Turning to `CCOc1ccc(-c2[nH]ncc2CN2CCn3c(nn(C)c3=O)C2)cc1`, the RP-LC retention time came out at 618 s.

In the case of `O=C(Nc1ccc2c(c1)OCCO2)N1CCC(Cc2noc(C3CCOCC3)n2)C1` (centres undefined), the RP-LC retention time was 698 s.

In turn, `CCc1cccc(Nc2c(C(=O)N3CCCCC3C)cnc3nc(C)ccc23)c1` (centres undefined) had an RP-LC retention time of 677 s.

`COc1ccc(CCNC(=O)C2CCCN(S(=O)(=O)c3ccc(OC)c(Cl)c3)C2)cc1` (centres undefined) yielded an RP-LC retention time of 938 s.

On to `Cn1ncc(N2CCCC(CC(=O)N3CCSCC3)C2)cc1=O` (centres undefined), for which the RP-LC retention time was determined as 666 s.

As to `COCCCn1c(=O)c2ccccc2n(Cc2nc(-c3cccc(Br)c3)no2)c1=O`, the RP-LC retention time amounted to 1190 s.

On to `CN1C(=O)c2cc(C(=O)N3CCN(c4ncccn4)CC3)nn2CC1(C)C(=O)NC1CCCCCC1` (centres undefined), for which the RP-LC retention time turned out to be 742 s.
